The source made the active and inactive calls. No cut-off for these calls is given here.
Tests used:
[1] = Chemical stability in 0.1 M HCl at pH 1.2 assessed as half life measured up to 12 hrs by HPLC analysis; assay type: physicochemical
[2] = Chemical stability in acetate buffer at pH 4.5 assessed as half life measured up to 12 hrs by HPLC analysis; assay type: physicochemical
[3] = Chemical stability in phosphate buffer at pH 6.8 assessed as half life measured up to 12 hrs by HPLC analysis; assay type: physicochemical
[4] = Chemical stability in phosphate buffer at pH 7.2 assessed as half life measured up to 12 hrs by HPLC analysis; assay type: physicochemical
[5] = Stability in simulated gastric fluid at pH 1.2 assessed as half life measured up to 12 hrs by HPLC analysis; assay type: ADME
[6] = Stability in simulated intestinal fluid at pH 6.8 assessed as half life measured up to 12 hrs by HPLC analysis; assay type: ADME
[7] = Metabolic stability in healthy C57BL/6 mouse jejunum assessed as half life measured up to 12 hrs by HPLC analysis; assay type: ADME, tissue-based
[8] = Metabolic stability in healthy C57BL/6 mouse colon assessed as half life measured up to 12 hrs by HPLC analysis; assay type: ADME, tissue-based
[9] = Metabolic stability in healthy C57BL/6 mouse colonic flora homogenate assessed as half life measured up to 12 hrs by HPLC analysis; assay type: ADME
[10] = Metabolic stability in healthy C57BL/6 mouse liver assessed as half life measured up to 12 hrs by HPLC analysis; assay type: ADME, tissue-based
[11] = Metabolic stability in healthy C57BL/6 mouse plasma assessed as half life measured up to 12 hrs by HPLC analysis; assay type: ADME, cell-free
[12] = Metabolic stability in DSS-induced C57BL/6 mouse jejunum assessed as half life measured up to 12 hrs by HPLC analysis; assay type: ADME, tissue-based
[13] = Metabolic stability in DSS-induced C57BL/6 mouse colon assessed as half life measured up to 12 hrs by HPLC analysis; assay type: ADME, tissue-based
[14] = Metabolic stability in DSS-induced C57BL/6 inflammatory mouse model colonic flora homogenate assessed as half life measured up to 12 hrs by HPLC analysis; assay type: ADME; conditions: C57BL/6, mouse
[15] = Stability in human Caco-2 cells homogenate assessed as half life measured up to 12 hrs by HPLC analysis; assay type: ADME, cell-based; conditions: Caco-2 cell homogenate
[16] = target: T1, Solute carrier family 15 member 1 (Rattus norvegicus, UniProt P51574); experiment: Substrate activity in PEPT1 in Sprague-Dawley rat jejunum assessed as fold increase in effective permeability at 5 mM measured up to 60 mins in presence of Gly-Sar by HPLC analysis relative to its enantiomers; assay type: ADME, tissue-based; conditions: 1 h, 5000 µM
T1 sequence (P51574 whole entry): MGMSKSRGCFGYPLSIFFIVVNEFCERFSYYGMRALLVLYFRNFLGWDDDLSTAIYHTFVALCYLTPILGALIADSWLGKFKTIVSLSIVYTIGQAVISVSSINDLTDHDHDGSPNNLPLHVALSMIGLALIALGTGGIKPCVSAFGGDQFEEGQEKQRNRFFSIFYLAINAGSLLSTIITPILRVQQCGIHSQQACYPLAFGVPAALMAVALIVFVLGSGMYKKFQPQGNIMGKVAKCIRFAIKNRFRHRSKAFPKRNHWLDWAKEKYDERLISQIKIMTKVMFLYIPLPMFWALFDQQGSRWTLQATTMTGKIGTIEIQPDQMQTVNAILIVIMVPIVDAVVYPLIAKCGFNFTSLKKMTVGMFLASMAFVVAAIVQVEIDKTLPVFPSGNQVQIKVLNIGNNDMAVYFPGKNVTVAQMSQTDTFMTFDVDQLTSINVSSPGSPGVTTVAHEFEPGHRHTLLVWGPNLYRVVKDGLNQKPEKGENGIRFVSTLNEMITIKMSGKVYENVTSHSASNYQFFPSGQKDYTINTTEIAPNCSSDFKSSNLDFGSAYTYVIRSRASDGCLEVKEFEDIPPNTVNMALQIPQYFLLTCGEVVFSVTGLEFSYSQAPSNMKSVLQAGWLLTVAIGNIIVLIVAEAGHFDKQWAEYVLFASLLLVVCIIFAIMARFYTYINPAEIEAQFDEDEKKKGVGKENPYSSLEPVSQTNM

[17] = target: T2, Solute carrier family 15 member 1 (Homo sapiens, UniProt P46059); experiment: Substrate activity at PEPT1 in human Caco-2 cells assessed as inhibition of Gly-Sar substrate uptake by UPLC-MS/MS analysis; assay type: cell-based
T2 sequence (P46059 whole entry): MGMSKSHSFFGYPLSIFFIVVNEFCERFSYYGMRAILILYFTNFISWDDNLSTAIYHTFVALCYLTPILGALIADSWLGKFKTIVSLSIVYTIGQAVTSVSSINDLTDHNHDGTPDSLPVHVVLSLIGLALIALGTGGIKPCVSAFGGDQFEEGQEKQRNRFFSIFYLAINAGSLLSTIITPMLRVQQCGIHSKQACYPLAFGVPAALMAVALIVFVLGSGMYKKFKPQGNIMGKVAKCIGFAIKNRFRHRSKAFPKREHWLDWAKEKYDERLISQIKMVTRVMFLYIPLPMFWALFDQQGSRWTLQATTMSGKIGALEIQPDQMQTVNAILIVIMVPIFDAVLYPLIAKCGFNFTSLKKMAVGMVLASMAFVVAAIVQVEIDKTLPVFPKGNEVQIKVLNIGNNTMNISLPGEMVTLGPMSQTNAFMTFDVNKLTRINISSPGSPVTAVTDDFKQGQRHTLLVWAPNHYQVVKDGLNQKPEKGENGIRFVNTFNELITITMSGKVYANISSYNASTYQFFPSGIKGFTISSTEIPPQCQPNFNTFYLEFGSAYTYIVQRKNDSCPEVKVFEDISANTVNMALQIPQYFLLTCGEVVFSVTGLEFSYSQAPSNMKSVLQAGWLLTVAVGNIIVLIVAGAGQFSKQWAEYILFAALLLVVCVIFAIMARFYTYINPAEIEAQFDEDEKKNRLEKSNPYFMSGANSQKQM

[18] = target: T2, Solute carrier family 15 member 1; experiment: Substrate activity at PEPT1 in human Caco-2 cells assessed as fold increase in drug uptake by UPLC-MS/MS analysis relative to its enantiomers; assay type: ADME, cell-based
[19] = target: T2, Solute carrier family 15 member 1; experiment: Substrate activity at PEPT1 in human Caco-2 cells assessed as fold reduction in drug uptake in presence of Gly-Sar by UPLC-MS/MS analysis relative to its enantiomers; assay type: ADME, cell-based
[20] = AUC (0 to 6 hrs) in DSS-induced colitis C57BL/6 mouse model at 25 mg/kg, po measured up to 6 hrs by UPLC-MS/MS analysis; assay type: ADME, organism-based; parameters: route oral, dose 25 mg/kg, time <=6; conditions: in vivo
[21] = Cmax in DSS-induced colitis C57BL/6 mouse model at 25 mg/kg, po measured up to 6 hrs by UPLC-MS/MS analysis; assay type: ADME, organism-based; parameters: route oral, dose 25 mg/kg, time <=6; conditions: in vivo
[22] = Tmax in DSS-induced colitis C57BL/6 mouse model at 25 mg/kg, po measured up to 6 hrs by UPLC-MS/MS analysis; assay type: ADME, organism-based; conditions: in vivo
[23] = tested on: Mus musculus; experiment: Anti-colitis activity against DSS-induced colitis in C57BL/6 mouse model assessed as assessed as recovery of body weight at 25 mg/kg, po administered via gavage twice daily for 10 days; assay type: functional, organism-based; conditions: time 10.0 day
[24] = tested on: Mus musculus; experiment: Anti-colitis activity against DSS-induced colitis in C57BL/6 mouse model assessed as increase in colon length at 25 mg/kg, po administered via gavage twice daily for 10 days; assay type: functional, organism-based; conditions: time 10.0 day
[25] = Apparent permeability across apical to basolateral side in human Caco-2 cells assessed as fold increase in permeability at 0.5 mM measured up to 60 mins by UPLC-MS/MS analysis relative to its enantiomers; assay type: ADME, cell-based; conditions: caco-2, 1 h, 500 µM
[26] = tested on: Jejunum; experiment: Effective permeability in Sprague-Dawley rat jejunum assessed as fold increase in permeability at 5 mM measured up to 60 mins by HPLC analysis relative to its enantiomers; assay type: ADME, tissue-based; conditions: 1 h, 5000 µM
[27] = tested on: Mus musculus; experiment: Anti-colitis activity against DSS-induced colitis in C57BL/6 mouse model assessed as fold decrease in disease activity index at 25 mg/kg, po administered via gavage twice daily for 10 days relative to control; assay type: functional; conditions: time 10 day

half-life [1] [h]	half-life [2] [h]	half-life [3] [h]	half-life [4] [h]	half-life [5] [h]	half-life [6] [h]	half-life [7] [h]	half-life [8] [h]	half-life [9] [h]	half-life [10] [h]	half-life [11] [h]	half-life [12] [h]	half-life [13] [h]	half-life [14] [h]	half-life [15] [h]	fold change (FC) [16]	IC50 [17] [mM]	fold change (FC) [18]	fold change (FC) [19]	AUC [20] [microM/L.hr]	Structure (SMILES)	further results
> 12	> 12	> 12	> 12	> 12	> 12	0.39	> 12	1.22	0.51	> 12	0.35	> 12	1.15	> 12	4	9.8	3.3	3.4	1.62	O=C(O)[C@H](CO)NC(=O)[C@@H]1C[C@H](O)CN1	Cmax [21]: 1050 nM; Tmax [22]: 2 h; Activity [23]: inactive; Activity [24]: inactive; fold change (FC) [25]: 6.3; fold change (FC) [26]: 7.3
> 12	> 12	> 12	> 12	> 12	> 12	> 12	> 12	> 12	> 12	> 12	> 12	> 12	> 12	> 12	6.2	9.6	3.3	3.4	8.55	O=C(O)[C@H](CO)NC(=O)[C@H]1C[C@H](O)CN1	Cmax [21]: 4010 nM; Tmax [22]: 2 h; Activity [23]: inactive; Activity [24]: inactive; fold change (FC) [25]: 6.3; fold change (FC) [26]: 7.3
> 12	> 12	> 12	> 12	> 12	> 12	0.35	> 12	0.86	0.27	> 12	0.29	> 12	0.88	> 12	7.8	5.18	3.3	3.4	1.34	O=C(O)[C@H](CO)NC(=O)[C@@H]1C[C@@H](O)CN1	Cmax [21]: 520 nM; Tmax [22]: 2 h; Activity [23]: Active; Activity [24]: Active; fold change (FC) [27]: 1.5; fold change (FC) [25]: 6.3; fold change (FC) [26]: 7.3
> 12	> 12	> 12	> 12	> 12	> 12	0.33	> 12	0.91	0.32	> 12	0.39	> 12	0.99	> 12	4.6	10.2	3.3	3.4	1.67	O=C(N[C@H](CO)C(=O)O)[C@@H]1C[C@@H](O)CN1	Cmax [21]: 640 nM; Tmax [22]: 2 h; Activity [23]: Active; Activity [24]: Active; fold change (FC) [27]: 1.5; fold change (FC) [25]: 6.3; fold change (FC) [26]: 7.3
